For one data set, the system named is β-catenin. Put plainly: β-catenin localization by immunofluorescence in LS174 cells. It counts as cell-based. Conditions: 10 μM, 24 h, versus DMSO. As to the method: Immunofluorescence. Cells grown on cover glass were fixed by 4% paraformaldehyde for 20 min at room temperature. The cells were permeabilized with PBS containing 0.3% (w/v) Triton X-100 and blocked by 5% normal goat serum in PBS for 30 min. Anti-β-catenin antibody (1:300, Sigma, St. Louis, Mo.) was diluted in blocking solution and incubated with cells overnight. The cells were washed 3 times with PBS and further incubated with Alexa-488-labeled anti-rabbit IgG (1:500) diluted in PBS for 40 min. The cover glasses were washed, mounted on glass slides, viewed and photographed with an Olympus FW1000 confocal microscope. Cells grown on cover glass were treated with fluorescent compounds for 2 h, 6 h, 12 h and 24 h respectively. Treated cells were fixed by 4% paraformaldehyde for 20 min at room temperature. Then cells were washed 3 times with PBS and mounted on glass slides, viewed under the fluorescence of 405 nm-wavelength and photographed with an Olympus FW1000 confocal microscope.
Nevertheless, compound 4s lends itself well to a mechanistic study of the site of action of these compounds. LS174 cells were treated with 10 μM of compound 4s for 2 h, 6 h, 12 h, and 24 h. The cells were fixed and analyzed by confocal fluorescence microscopy. […] The cells were fixed and β-catenin localization analyzed by immunofluorescence. […]

The subject of data set [1] is Wnt target genes, Axin2 and c-Myc. The data set can be described thus: Western blot of Wnt target proteins in LS174 CRC cells. It counts as cell-based. The method, then:
Western blot. Western blots were performed using the following antibodies: β-catenin (Sigma, C2206), c-Myc (Epitomics, 1472-1), Axin2 (Cell Signaling, 2151), β-Actin (Sigma, A1978), TCF4 (Epitomics, 2114-1) and pygopus2 (Santa Cruz, sc-74878), Cyclin D1 (Cell signaling, 2926).
Cyclin B1 levels were decreased, whereas p21^WAF1/CIP1 levels increased, consistent with the fact that p21^WAF1/CIP1 expression is repressed by c-Myc. β-catenin levels were not affected by resveratrol. Next, the mRNA levels of β-catenin target genes were analyzed using RT-PCR. Expression of survivin, Lgr5, CD44, and c-Myc were decreased in resveratrol-treated cells.
A panel of stilbene analogs was designed and synthesized (FIGS. 2, 3, 5A and 6A). […] However, the solubility of 4d was poor and it was not effective below 10 μM concentrations (data not shown). To improve its solubility and activity, compound 4d was modified with 2′-fluoro 4e, 3′-fluoro 4f and 4′-fluoro 4g substituents (FIG. 5D). Both compounds 4e and 4f had good activity at 10 μM, (E)-4-(2-fluorostyryl)-N,N-dimethylaniline.
Western blot and cell proliferation assay. The activity of fluorinated N,N-dialkylaminostilbenes (FIDAS or FIDAS agents) on Wnt signaling activity in cancer cells were analyzed by Western blot with antibodies against Wnt target genes, such as c-Myc, Axin2. The effects of FlDAS agents on cancer cell growth were analyzed using Cell Viability Analyzer (Beckman Coulter, Vi-Cell XR). These assays have been described previously (see Zhang et al., J. of Med. Chem. 54, 1288-1297 (2011)).

In another data set the test system is LS174 tumor xenografts. Put plainly: LS174 tumor xenograft in nude mice. The data set is classed as in vivo. As to the method: Tumor xenograft in nude mice. LS174 or HT29 colon cancer cells (2×10^6) were injected subcutaneously into both flanks of 6-8 week C57BL/6J athymic nude mice as described in Zhang et al., Mol Cell Biol 2006, 26, 2055-2064. Compound 4r or 4dd was dissolved in corn oil or PEG400. The mice were treated with 20 mg/kg/day of 4r by ip injection or gavage (50 μl/mouse). Control mice were treated with same volume of corn oil or PEG400. The body weight and tumor growth were analyzed twice weekly for one month. Tumor size was measured using digital caliper. The tumor volume was calculated by the formula: V=½LW^2 (mm^3).
In this example, the effects of the stilbene analogs of the present disclosure on CRC cells growth was analyzed. […] To test the effects of compound 4r on tumor growth in vivo, LS174 cells were injected subcutaneously into the flanks of athymic nude mice, which had been randomized into two groups. One group of mice was treated with compound 4r (20 mg/kg/day) dissolved in corn oil by intraperitoneal (ip) injection. The control mice were treated with the same volume of corn oil (50 μL) by ip injection. The mice were weighted and tumors measured twice weekly.

The text below walks through data of patent US8664276B2, “Stilbene analogs and methods of treating cancer” (University of Kentucky Research Foundation, priority 2011, dated 2014).

“Also recorded” adds a separate entry of the source.

In the case of `CN(C)c1ccc(/C=C/c2c(F)cccc2F)cc1` [4r, (E)-4-(2,6-Difluorostyryl)-N,N-dimethylaniline], the “nuclear β-catenin levels” value in the data set on β-catenin is reported as “decreased”. In addition, the “repression of Wnt target genes at 10 μM” value in data set [1] (10 μM, CRC cells) is “repress Wnt target genes; also recorded: reduced the protein levels”. Besides, in data set [1] (CRC cells), the “Wnt inhibitory activity in Western blot, qualitative or relative to a comparator” value is listed as “more active than compound 4e; also recorded: best activity”; the “protein levels of TCF4 and pygopus2” value is “reduced”. In addition, in data set [1] (LS174 CRC cells, 2.5 μM), the “inhibition of Wnt target genes at 2.5 μM” value is recorded as “significantly inhibited”. Besides, the “body weight versus control mice” value in the data set on LS174 tumor xenografts (20 mg/kg/day ip in corn oil, within one month) is “no significant difference”. Moreover, in the data set with LS174 tumor xenografts (LS174, 20 mg/kg/day ip in corn oil), the “growth of tumor xenografts” value is given as “significantly inhibited”.
